Source: EP0319030A1, “Aminopropanol derivatives of 1,4:3,6-dianhydro-hexitol nitrates, processes for their preparation and their use as medicaments” (Heinrich Mack Nachf., priority 1987, dated 1989)
Marks after values point to notes of the source that are not given here.

Key:
Type in all cases: in vivo
anesthetized dogs = test: Cardiovascular actions following intra-venous administration, opened thorax and artificial respiration; conditions: opened thorax, artificial respiration
Text: (§1) In particular, they have a pronounced cardiovascular action. On isolated strips of veins from dogs, they act against the K⁺-induced contraction in a lower concentration than on aorta strips. On isolated hearts from guinea pigs, they increase coronary flow as a function of the dose. On anesthetized rats, they prevent lypressin coronary spasm as a function of the dose and significiantly increase the survival rate of rats following acute cardiac infarction. On normotensive conscious dogs, they lower the systolic blood pressure for a period of 6-8 hours after oral administration. On artifically respirated anesthetized, thoraxotomized dogs, they reduce the mean arterial pressure, the left ventricular systolic pressure, the left ventricular end diastolic pressure and the pressure in the Arteria pulmonalis and reduce the peripheral vascular resistance. In contrast to the known organic nitrate esters, they also lead to a long-lasting reduction in the systolic blood pressure of spontaneously hypertensive rats. Such an action profile is not known for any of the substances of similar structure which have already been described.

rats = test: Survival rate after acute coronary ligature, method of I. Lepran et al.; conditions: 30.0 mg/kg orally 5 minutes before ligature
Text: as §1

Mice = test: Peroral tolerance in mice; conditions: mouse, in vivo
Text: Set forth below is data obtained on the compounds of Examples 17, 19 and 20 that illustrates the pharmacological action of the compounds of the present invention.

conscious beagle dogs = test: Systolic blood pressure and heart rate following peroral administration; conditions: 6.0 mg/kg peroral, mean ± SEM
Text: as §1

anesthetized rat = test: Lypressin-induced T-wave increase in the ECG (lypressin coronary spasm), method of M. Leitold et al.
Text: as §1

## COc1ccccc1N1CCN(CC(O)CO[C@H]2CO[C@H]3[C@@H]2OC[C@H]3O[N+](=O)[O-])CC1 (stereo partly shown) [Example 17, 2-O-<3-[4-(2-Methoxyphenyl)-piperazinyl]-2-hydroxypropyl>-isosorbide-5-nitrate]
Anesthetized dogs; 30 µg/kg intra-venous
  CO, Action of substance: 0.93 ± 0.07 l/M
  CO, Change: 0.07 ± 0.04 l/M
  CO, Duration of action: 6 ± 3 min
  HR (heart rate), Action of substance: 219 ± 18 Bts/M
  HR (heart rate), Change: 21 ± 18 Bts/M
  HR (heart rate), Duration of action: 6 ± 2 min
  LVEDP (left ventricular enddiastolic pressure), Action of substance: 6.2 ± 0.7 mmHg
  LVEDP (left ventricular enddiastolic pressure), Change: 0.2 ± 0.03 mmHg
  LVEDP (left ventricular enddiastolic pressure), Duration of action: 2.2 ± 1.3 min
  LVSP (left ventricular systolic blood pressure), Action of substance: 131 ± 9 mmHg
  LVSP (left ventricular systolic blood pressure), Change: 19 ± 6 mmHg
  LVSP (left ventricular systolic blood pressure), Duration of action: 5 ± 3 min
  MAP (mean arterial blood pressure), Action of substance: 83 ± 1 mmHg
  MAP (mean arterial blood pressure), Change: 23 ± 2 mmHg
  MAP (mean arterial blood pressure), Duration of action: 14 ± 1 min
  PAP, Action of substance: 17.0 ± 4 mmHg
  PAP, Change: 1.3 ± 0.5 mmHg
  PAP, Duration of action: 2 ± 0.3 min
  SV, Action of substance: 52 ± 0.4 mL/s
  SV, Change: 0.4 ± 0.2 mL/s
  SV, Duration of action: 2 ± 0.2 min
  TPR (total peripheral vascular resistance), Action of substance: 65 ± 12 mmHg/ml
  TPR (total peripheral vascular resistance), Change: 23 ± 4 mmHg/ml
  TPR (total peripheral vascular resistance), Duration of action: > 14 min
  dp/dtmax (maximum rate of increase in the left ventricular pressure), Action of substance: 3144 ± 166 mmHg/s
  dp/dtmax (maximum rate of increase in the left ventricular pressure), Change: 424 ± 95 mmHg/s
  dp/dtmax (maximum rate of increase in the left ventricular pressure), Duration of action: 8 ± 3 min
Anesthetized dogs; 300 µg/kg intra-venous
  CO, Action of substance: 0.684 ± 0.137 l/M
  CO, Change: 0.127 ± 0.046 l/M
  CO, Duration of action: 73 ± 40 min
  HR (heart rate), Action of substance: 206 ± 15 Bts/M
  HR (heart rate), Change: 15 ± 13 Bts/M
  HR (heart rate), Duration of action: 2.4 ± 1 min
  LVEDP (left ventricular enddiastolic pressure), Action of substance: 5.5 ± 0.8 mmHg
  LVEDP (left ventricular enddiastolic pressure), Change: 0.3 ± 0.1 mmHg
  LVEDP (left ventricular enddiastolic pressure), Duration of action: 5.6 ± 2 min
  LVSP (left ventricular systolic blood pressure), Action of substance: 115 ± 4 mmHg
  LVSP (left ventricular systolic blood pressure), Change: 39 ± 5 mmHg
  LVSP (left ventricular systolic blood pressure), Duration of action: 151 ± 24 min
  MAP (mean arterial blood pressure), Action of substance: 49 ± 3 mmHg
  MAP (mean arterial blood pressure), Change: 55 ± 6 mmHg
  MAP (mean arterial blood pressure), Duration of action: 157 ± 39 min
  PAP, Action of substance: 18.2 ± 5 mmHg
  PAP, Change: 1.5 ± 0.5 mmHg
  PAP, Duration of action: 1.4 ± 0.1 min
  SV, Action of substance: 3.7 ± 0.4 mL/s
  SV, Change: 0.7 ± 0.3 mL/s
  SV, Duration of action: 74 ± 43 min
  TPR (total peripheral vascular resistance), Action of substance: 42 ± 2 mmHg/ml
  TPR (total peripheral vascular resistance), Change: 42 ± 6 mmHg/ml
  TPR (total peripheral vascular resistance), Duration of action: 163 ± 16 min
  dp/dtmax (maximum rate of increase in the left ventricular pressure), Action of substance: 2133 ± 310 mmHg/s
  dp/dtmax (maximum rate of increase in the left ventricular pressure), Change: 1547 ± 423 mmHg/s
  dp/dtmax (maximum rate of increase in the left ventricular pressure), Duration of action: > 197 min
Anesthetized dogs; 3000 µg/kg intra-venous
  CO, Action of substance: 0.405 ± 0.055 l/M
  CO, Change: 0.450 ± 0.025 l/M
  CO, Duration of action: > 75 min
  HR (heart rate), Action of substance: 182 ± 17 Bts/M
  HR (heart rate), Change: 20 ± 17 Bts/M
  HR (heart rate), Duration of action: 1.4 ± 0.3 min
  LVEDP (left ventricular enddiastolic pressure), Action of substance: 5.6 ± 1 mmHg
  LVEDP (left ventricular enddiastolic pressure), Change: 0.6 ± 0.3 mmHg
  LVEDP (left ventricular enddiastolic pressure), Duration of action: > 73 min
  LVSP (left ventricular systolic blood pressure), Action of substance: 113 ± 3 mmHg
  LVSP (left ventricular systolic blood pressure), Change: 48 ± 3 mmHg
  LVSP (left ventricular systolic blood pressure), Duration of action: > 74 min
  MAP (mean arterial blood pressure), Action of substance: 33 ± 2 mmHg
  MAP (mean arterial blood pressure), Change: 67 ± 4 mmHg
  MAP (mean arterial blood pressure), Duration of action: > 114 min
  PAP, Action of substance: 18.2 ± 7 mmHg
  PAP, Change: 2.3 ± 0.8 mmHg
  PAP, Duration of action: 2 ± 0.6 min
  SV, Action of substance: 3.0 ± 0.6 mL/s
  SV, Change: 2.6 ± 0.4 mL/s
  SV, Duration of action: > 75 min
  TPR (total peripheral vascular resistance), Action of substance: 44 ± 10 mmHg/ml
  TPR (total peripheral vascular resistance), Change: 74 ± 6 mmHg/ml
  TPR (total peripheral vascular resistance), Duration of action: 24 ± 6 min
  dp/dtmax (maximum rate of increase in the left ventricular pressure), Action of substance: 2019 ± 123 mmHg/s
  dp/dtmax (maximum rate of increase in the left ventricular pressure), Change: 1828 ± 238 mmHg/s
  dp/dtmax (maximum rate of increase in the left ventricular pressure), Duration of action: > 75 min
rats; control 21/80
  Number of rats surviving after an acute coronary ligature, 24 hours: 17/20**
  Number of rats surviving after an acute coronary ligature, 7 days: 17/20**
rats; control 23/80
  Number of rats surviving after an acute coronary ligature, 60 minutes: 17/20**
Mice
  tolerance (clinical symptoms, fatal consequences): without clinical symptoms and without fatal consequences
Conscious beagle dogs
  HR (heart rate), Action of substance after 1 hours: 101 ± 17 Bts/M
  HR (heart rate), Action of substance after 2 hours: 110 ± 16 Bts/M
  HR (heart rate), Action of substance after 4 hours: 89 ± 8 Bts/M
  HR (heart rate), Action of substance after 6 hours: 89 ± 5 Bts/M
  HR (heart rate), Action of substance after 8 hours: 85 ± 7 Bts/M
  SBP (systolic blood pressure), Action of substance after 1 hours: 91 ± 6 mmHg
  SBP (systolic blood pressure), Action of substance after 2 hours: 89 ± 4 mmHg
  SBP (systolic blood pressure), Action of substance after 4 hours: 97 ± 5 mmHg
  SBP (systolic blood pressure), Action of substance after 6 hours: 101 ± 5 mmHg
  SBP (systolic blood pressure), Action of substance after 8 hours: 115 ± 7 mmHg
Anesthetized rat; Rattus norvegicus, po, 0.5 h, perorally 30 minutes before the lypressin injection, dose column in mg/kg
  ED50: 89.5 mg/kg
Anesthetized rat; perorally at various times before the lypressin injection
  Duration of action at the ED50 dose: 2 h
